Test results taken from US20260138990A1, “TRICYCLIC FUSED IMIDAZOLE COMPOUNDS AS CD38 MODULATORS AND USES THEREOF” (AEOVIAN PHARMACEUTICALS, INC., priority 2023, published 2026).

Key:
human CD38 = target: T1, human CD38 (Homo sapiens, UniProt P28907); experiment: NAD+ cyclase activity assay with human recombinant CD38 protein (ε-NAD fluorescence); assay type: biochemical; conditions: 1.9 nM human CD38, substrate ε-NAD, 30 min preincubation, fluorescence 300/410 nm
T1 construct: purchased Bio-Techne GmbH AVI2404
T1 sequence (P28907 1-300): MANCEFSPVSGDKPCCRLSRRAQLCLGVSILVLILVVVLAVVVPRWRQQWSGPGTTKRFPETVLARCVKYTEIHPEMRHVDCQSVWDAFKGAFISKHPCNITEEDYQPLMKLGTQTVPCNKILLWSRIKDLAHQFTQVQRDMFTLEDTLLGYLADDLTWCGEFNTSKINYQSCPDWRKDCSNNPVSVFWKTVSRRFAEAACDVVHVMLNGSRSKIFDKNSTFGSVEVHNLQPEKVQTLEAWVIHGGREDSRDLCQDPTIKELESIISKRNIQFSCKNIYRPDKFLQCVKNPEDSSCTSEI
Procedure, shortened: (§1)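 Recombinant CD38 (0.6 nM mouse or 1.9 nM human) in 40 mM HEPES/NaOH pH 7.5, 250 mM sucrose, 0.01% Tween was preincubated with compound for 30 min at room temperature, then […] ε-NAD was added. Fluorescence (ex 300/em 410 nm) was read continuously. Slopes over the linear phase were normalised to enzyme and no-enzyme controls and fitted from 12-point, threefold dose-response curves.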

mouse CD38 = target: T2, mouse CD38 (Mus musculus, UniProt P56528); experiment: NAD+ cyclase activity assay with mouse recombinant CD38 protein (ε-NAD fluorescence); assay type: biochemical; conditions: 0.6 nM mouse CD38, substrate ε-NAD, 30 min preincubation, fluorescence 300/410 nm
T2 construct: purchased Bio-Techne GmbH 4947-AC
T2 sequence (P56528 1-304): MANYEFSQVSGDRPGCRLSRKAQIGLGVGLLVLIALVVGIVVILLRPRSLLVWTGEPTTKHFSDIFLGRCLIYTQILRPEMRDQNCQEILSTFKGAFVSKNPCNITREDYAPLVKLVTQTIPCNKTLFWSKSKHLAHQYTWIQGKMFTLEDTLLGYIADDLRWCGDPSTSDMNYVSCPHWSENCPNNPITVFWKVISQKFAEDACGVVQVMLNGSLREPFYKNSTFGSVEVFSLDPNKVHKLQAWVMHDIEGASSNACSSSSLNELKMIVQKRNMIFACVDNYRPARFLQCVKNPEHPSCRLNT
Procedure, shortened: as §1

## CCC(O)(CN[C@H]1CC[C@H](NC(=O)c2ccc3c(c2)-c2cncn2CCO3)CC1)C(F)(F)F (some centres unmarked) [Compound 131A, N-((1r,4r)-4-((2-Hydroxy-2-(trifluoromethyl)butyl)amino)cyclohexyl)-5,6-dihydrobenzo[f]imidazo[1,5-d][1,4]oxazepine-10-carboxamide]
Human CD38
  IC50: < 30 nM
Mouse CD38
  IC50: < 1 nM
